Experimental data taken from PubChem BioAssay (NCI).
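Briefly, cells in 96-well plates were exposed to five compound concentrations for 48 h, and endpoints were estimated by linear interpolation. GI50: concentration for 50% inhibition of growth. The concentration for full growth arrest is given as TGI.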

Columns and labels:
Test in all cases: growth of human tumour cells (NCI), 48 h
SNB-75 CNS = system: SNB-75 CNS
SK-MEL-28 melanoma = system: SK-MEL-28 melanoma
NCI-H226 lung = system: NCI-H226 lung
BT-549 breast = system: BT-549 breast
EKVX NSCLC = system: EKVX NSCLC
HL-60(TB) leukemia = system: HL-60(TB) leukemia
HCC-2998 colon = system: HCC-2998 colon
SF-539 CNS = system: SF-539 CNS
UACC-257 melanoma = system: UACC-257 melanoma
M14 melanoma = system: M14 melanoma

| Structure (SMILES) | TGI (SNB-75 CNS) | TGI (SK-MEL-28 melanoma) | TGI (NCI-H226 lung) | TGI (BT-549 breast) | TGI (EKVX NSCLC) | TGI (HL-60(TB) leukemia) | TGI (HCC-2998 colon) | TGI (SF-539 CNS) | TGI (UACC-257 melanoma) | TGI (M14 melanoma) | GI50 (SNB-75 CNS) | GI50 (SK-MEL-28 melanoma) | GI50 (NCI-H226 lung) | GI50 (BT-549 breast) | GI50 (EKVX NSCLC) | GI50 (HCC-2998 colon) | GI50 (SF-539 CNS) | GI50 (UACC-257 melanoma) | GI50 (M14 melanoma) | GI50 (HL-60(TB) leukemia) |
| --- | --- | --- | --- | --- | --- | --- | --- | --- | --- | --- | --- | --- | --- | --- | --- | --- | --- | --- | --- | --- |
| C=CC1=C(C)C2=NC1=CC1=NC(=CC3=C(C)C4=C(O)C(C(=O)OC)C(=C5NC(=C2)C(C)C5CCC(=O)OC)C4=N3)C(CC)=C1C (configuration not stated) | > 100 µM | > 100 µM | > 100 µM | > 100 µM | > 100 µM | > 100 µM | > 100 µM | > 100 µM | > 100 µM | > 100 µM | – | – | – | – | – | – | – | – | – | – |
| COc1ccc(-c2cc(=O)c3c(OC)c(OC)c(OC)c(OC)c3o2)c(OC)c1 | > 100 µM | > 100 µM | > 100 µM | > 100 µM | > 100 µM | > 100 µM | 46.6 µM | > 100 µM | 49.5 µM | 46.7 µM | – | – | – | – | – | – | – | – | – | – |
| O=C1CCS/C(=N\S(=O)(=O)c2ccc(N3N=C4c5ccccc5CC4C3c3cccs3)cc2)N1C(=O)c1ccccc1 (configuration not stated) | > 100 µM | > 100 µM | 41 µM | > 100 µM | > 100 µM | – | 32.1 µM | > 100 µM | 20.6 µM | 27.2 µM | > 100 µM | 50.2 µM | 15.9 µM | 4.77 µM | 22.1 µM | 18.2 µM | 2.38 µM | 0.334 µM | 10.8 µM | – |
| Cc1cc(N(CCCl)CCCl)ccc1/C=N/NC(=O)Cc1cc(=O)oc2cc(O)ccc12 | > 100 µM | 41.9 µM | 43.2 µM | 34.7 µM | 82.9 µM | 33.5 µM | 72 µM | 40.7 µM | 58.1 µM | 35.1 µM | – | – | – | – | – | – | – | – | – | – |
| O=C(Nc1ccccc1)Nc1cccc(Oc2nnc(Cl)c3ccccc23)c1 | 5.9 µM | 12.7 µM | 9.25 µM | 10.8 µM | 12.1 µM | > 25 µM | 12.2 µM | 6.4 µM | > 25 µM | > 25 µM | 1.08 µM | 3.57 µM | 1.95 µM | 3.06 µM | 2.31 µM | 4.2 µM | 2.81 µM | 3.96 µM | 6.15 µM | 2.7 µM |
| O=C(CC1C=CCS1(=O)=O)NCc1ccccc1 (configuration not stated) | > 100 µM | > 100 µM | > 100 µM | > 100 µM | > 100 µM | > 100 µM | > 100 µM | > 100 µM | > 100 µM | > 100 µM | – | – | – | – | – | – | – | – | – | – |
| CCNCCCn1c2c(c3ccc([N+](=O)[O-])cc3c1=O)C(=O)c1cc(OC)cnc1-2 | 1.54 µM | 1.56 µM | – | 1.2 µM | 1.27 µM | 0.657 µM | 0.66 µM | 0.579 µM | 0.92 µM | 0.437 µM | 0.126 µM | 0.227 µM | – | 0.172 µM | 0.204 µM | 0.151 µM | 0.0696 µM | 0.157 µM | 0.0408 µM | 0.037 µM |
| COc1ccccc1-c1cc(=O)c2ccc(OC)c(OC)c2o1 | > 100 µM | > 100 µM | > 100 µM | > 100 µM | > 100 µM | > 100 µM | > 100 µM | > 100 µM | > 100 µM | > 100 µM | – | – | – | – | – | – | – | – | – | – |
| COc1ccc(OC)c2c(=S)c3ccccc3[nH]c12 | > 100 µM | > 100 µM | > 21.5 µM | > 100 µM | > 100 µM | 57.6 µM | > 100 µM | > 100 µM | > 100 µM | > 100 µM | – | – | – | – | – | – | – | – | – | – |
| COc1ccc(N(/C=C/C(=O)C(F)(F)F)CC(=O)c2ccc(Cl)c(Cl)c2)cc1 | – | 79.4 µM | 37.9 µM | 22 µM | 27.6 µM | – | 32.5 µM | 30.3 µM | 35.4 µM | 25.6 µM | – | 28.1 µM | 18.5 µM | 7.57 µM | 13.2 µM | 18.5 µM | 16.1 µM | 16.7 µM | 12.7 µM | – |
| Cc1nc(C(N)=S)sc1C(=O)C/C(=N/N)C(=O)Nc1ccc(Cl)cc1 | > 100 µM | > 100 µM | > 100 µM | > 100 µM | > 100 µM | – | > 100 µM | > 100 µM | > 100 µM | > 100 µM | – | – | – | – | – | – | – | – | – | – |
| N#C/C(=C\c1ccc(Br)cc1)n1nnc2ccccc21 | – | 3.54 µM | 6.75 µM | 4.85 µM | 7.48 µM | 2.04 µM | 3.34 µM | 1.86 µM | 4.26 µM | 3.44 µM | – | 0.94 µM | 1.4 µM | 0.566 µM | 1.41 µM | 1.51 µM | 0.513 µM | 1.19 µM | 0.386 µM | 0.287 µM |
| O=C1CS/C(=N\S(=O)(=O)c2ccc(N3N=C4c5ccccc5CC4C3c3ccc(Cl)cc3)cc2)N1c1ccccc1 (configuration not stated) | – | – | > 100 µM | > 100 µM | > 100 µM | 48.7 µM | – | > 100 µM | > 100 µM | > 100 µM | – | – | 45.1 µM | 35.6 µM | 43.2 µM | – | 60.2 µM | 92.9 µM | 59.4 µM | 23.1 µM |
| COc1ccc2c(c1)/C(=C/c1cc(OC)c(OC)c(OC)c1)C(=O)N2C | > 21.4 µM | 22.5 µM | > 100 µM | > 30.4 µM | > 100 µM | 5.28 µM | > 56.1 µM | 5.92 µM | > 80.4 µM | – | 2.29 µM | 3.58 µM | 4.85 µM | 2.84 µM | 5.1 µM | 9.39 µM | 2.21 µM | 7.88 µM | – | 1.46 µM |
| N#Cc1c(N)nc(N2CCOCC2)c(C#N)c1-c1ccccc1Cl | 32.6 µM | > 100 µM | > 100 µM | > 100 µM | > 100 µM | – | > 100 µM | > 100 µM | > 100 µM | > 100 µM | 0.414 µM | 33.6 µM | 55.5 µM | 30.5 µM | 37.6 µM | 49.8 µM | 43.5 µM | 47.9 µM | 60.9 µM | – |
| Cc1ccc(Sc2sc(-c3ccccc3)nc2[P+](c2ccccc2)(c2ccccc2)c2ccccc2)cc1 | 0.759 µM | 1.88 µM | – | 1.18 µM | 0.932 µM | 0.521 µM | 1.63 µM | 1.47 µM | 1.11 µM | 1.3 µM | 0.21 µM | 0.605 µM | – | 0.32 µM | 0.266 µM | 0.453 µM | 0.375 µM | 0.328 µM | 0.326 µM | 0.194 µM |
